Patent US12100151B2, “Droplet imaging pipeline” (Xilis, Inc., priority 2022, dated 2024)
Entries after “also recorded” stand apart in the source; their conditions may differ.

Assays:
sarcoma cancer MOS [1] = test: CTG luminescent cell viability assay on sarcoma cancer MOS; format: cell-based; conditions: sarcoma MOS treated on Day 7 after establishment; FIG. 5F top panel
Experimental: To measure cell viability, we used the CTG luminescent cell viability assay. CellTiter-Glo 3-D reagent (Promega, catalog no. G9681) was added in a 1:1 ratio with the initial well volume ([…], of CTG reagent 96-well plates and 384-well plates, respectively). The plates were placed on a shaker for 30 min. We measured luminescence by using a plate reader for each well.
Cell viability was assessed using both metabolic and imaging parameters. For the metabolic assay, Day 0 brightfield images were used to normalize CTG measurements for each well. Total surface areas (tSA) outputted from the machine learning model were used for normalizing the plating variations. The measured CTG value of each well was then divided by these surface area ratios to determine the adjusted CTG values. These adjusted CTG values were used to generate drug response curves, e.g., viability curves for each drug condition.
(§1) The imaging-based MOS drug assay allowed further delineating MOS 3D structures from individual stromal cells by overcoming fundamental limits of bulk assays, e.g., cell number, well-to-well variation, heterogeneity, and signal-to-noise ratio.

sarcoma cancer MOS [2] = test: live/dead cell dye imaging assay on sarcoma cancer MOS; format: cell-based; conditions: sarcoma MOS treated on Day 7 after establishment; FIG. 5F bottom panel
Source text: as §1

CRC #6 = test: imaging-based MOS drug assay (MOS size, live/dead CAM/EtH dyes) on CRC #6; format: cell-based; conditions: CRC #6 model
Source text: (§2) The plates were scanned using the Celigo imaging cytometer and its software. We collected the brightfield images on the day (day 0) of the drug treatment and on the day right before performing the CellTiter-Glo (CTG) assay. Upon inserting the plate, images were set to be acquired on brightfield, green, and red fluorescence channels. The brightfield channel was used to focus the device and ensure the MOS boundaries were crisp. The green (live cell) fluorescence channel exposure time was then adjusted to ensure pixel intensity was below 200 across the control triplicate wells to avoid overexposure. This process was repeated for the red (dead cell) fluorescence channel in the positive control, killing condition triplicate wells. After scanning the plate, the stitched images of each well were exported in tiff format for the downstream imaging analysis.
(§3) We performed the live and dead cell staining on the same day prior to the CTG assay. For 96 well plates, a working dye solution of 20 μM Ethidium Homodimer-2 (Thermo Fisher, Cat. No. E3599) and 5 μM Calcein AM (Thermo Fisher, catalog No. C3100MP) was prepared by adding 1 mM Calcein AM, 1 mM Ethidium Homodimer-2, and CRC media in a 1:8:191 ratio. For 384-well plates, the working dye solution of 10 μM Ethidium Homodimer-2 and 2.5 μM Calcein AM was prepared by adding 1 mM Calcein AM, 1 mM Ethidium Homodimer-2, and colorectal cancer (CRC) media in a 1:8:391 ratio. After the solution was prepared, 11 μL and 10 μL of dye solution were added to each well on the 96-well and 384-wells plates, respectively, to yield a final well concentration of 2 μM Ethidium Homodimer-2 and 0.5 μM Calcein AM. The plates were then incubated for 45 min at 37° C.
(§4) Therefore, in studies involving the ratio of live-cell stain to dead-cell stain, we increased the predicted object mask to capture all the dead-stain fluorescence signal. The size increase was performed using one iteration of the dilate algorithm in OpenCV with a kernel size of 10×10. Any other MOSs detected by the machine learning model that overlap with this expanded region were removed before the integrated fluorescence was computed.
For the live and dead cell dyes-based imaging assay, the integrated live cell dye (Calcein AM) and dead cell dye (Eth) signals for each segmented object were determined. […]
(§5) To further increase the resolution and power of MOS drug assay pipeline, we developed an orthogonal approach by spiking a combination of live-cell (Calcein AM, CAM) and dead-cell (Ethidium Homodimer II, EtH) dyes (FIG. 5A; scale bar of 200 μm) into the drug assay plates prior to performing the CTG assay. We were able to quantitatively measure the integrated intensities of the CAM and EtH dyes in addition to MOS sizes.

CRC #5 = CRC #5 model; for sizes of CRC #5 MOS: FIG. 5A top panel; for drug response curve by median CAM/EtH dye ratios as compared to CTG based assay: FIG. 5C; for cytostatic vs. cytotoxic drug effect: from size, CAM/EtH ratio and CTG
Source text: as §2, §3, §4
For the live and dead cell dyes-based imaging assay, the integrated live cell dye (Calcein AM) and dead cell dye (Eth) signals for each segmented object were determined. To assess drug response at individual MOS level, the integrated intensities, or the ratios of Calcein AM/EtH, were shown on the scatter plot or histogram. The correlation of dose-dependent drug response with the median ratios of the integrated live/dead cell dye intensities from each well were computed and plotted.
as §5

SMILES	bulk CTG readouts (raw CTG or adjusted CTG) drug response curves (sarcoma cancer MOS [1])	drug response by median values of live/dead cell ratios (sarcoma cancer MOS [2])	sensitivity of the model to the drug (CRC #6)	sizes of CRC #6 MOS (CRC #6)	sizes of CRC #5 MOS (CRC #5)	drug response curve by median CAM/EtH dye ratios as compared to CTG based assay (CRC #5)	cytostatic vs. cytotoxic drug effect (CRC #5)	drug resistant clones identified (CRC #6; FIG. 5A and FIG. 5D)	drug response curve by median CAM/EtH dye ratios as compared to CTG based assay (CRC #6; FIG. 5C)	ratios of CAM/EtH dye integrated intensities (CRC #5; live-cell Calcein AM / dead-cell Ethidium Homodimer II)
CC(=O)O[C@@]12CO[C@@H]1C[C@H](O)[C@@]1(C)C(=O)[C@H](O)C3=C(C)[C@@H](OC(=O)[C@H](O)[C@@H](NC(=O)OC(C)(C)C)c4ccccc4)C[C@@](O)([C@@H](OC(=O)c4ccccc4)[C@H]21)C3(C)C [Docetaxel]	not able to provide any meaningful dose-dependent drug response curves	clear dose-dependent drug response	–	–	–	–	–	–	–	–
C#Cc1cccc(Nc2ncnc3cc(OCCOC)c(OCCOC)cc23)c1 [Erlotinib]	–	–	resistant to EGFR inhibition	no obvious decrease	decreased	divergence between CTG plot and CAM/EtH ratio plot	cytostatic effect; also recorded: cytostatic but not the cytotoxic effect	–	–	–
Nc1ccn([C@@H]2O[C@H](CO)[C@@H](O)C2(F)F)c(=O)n1 [Gemcitabine]	not able to provide any meaningful dose-dependent drug response curves	less sensitive response	–	–	–	–	–	–	–	–
CCc1c2c(nc3ccc(O)cc13)-c1cc3c(c(=O)n1C2)COC(=O)[C@]3(O)CC [SN38]	–	–	–	–	decreased	comparable dose-dependent drug responses	cytotoxic effect	identified the drug resistant clones	comparable dose-dependent drug responses	only decreased in the wells treated with SN38
